According to ChEMBL document CHEMBL1201862, “PubChem BioAssay data set” (2004):
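Following 48 hours of exposure in 96-well plates, responses at five concentrations were used to interpolate endpoints linearly. The concentration for 50% growth inhibition is given as GI50.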 Calls of active or inactive are those of the source. Cut-off read from the data, not from the text of the source: active = GI50 up to about 1.1 µM and inactive = higher.

Assays:
Assay in all cases: inhibition of tumour cell growth, NCI panel, 48 h
[1] = tested on: 786-0
[2] = tested on: CAKI-1
[3] = tested on: CCRF-CEM
[4] = tested on: HCC 2998
[5] = tested on: HL-60
[6] = tested on: HT-29
[7] = tested on: KM12
[8] = tested on: M14
[9] = tested on: NCI-H23
[10] = tested on: NCI-H460
[11] = tested on: NCI-H522
[12] = tested on: NCI/ADR-RES
[13] = tested on: OVCAR-4
[14] = tested on: OVCAR-5
[15] = tested on: SK-MEL-28
[16] = tested on: SK-OV-3
[17] = tested on: SR
[18] = tested on: SW-620
[19] = tested on: TK-10
[20] = tested on: UO-31

Measured: GI50

CC1=Nn2c(nc3sc4c(c3c2=O)CCCC4)SC1
inactive: [1] > 81.3 µM | [2] > 100 µM | [3] 35.3 µM | [4] 99.5 µM | [5] 34.8 µM | [6] > 88.7 µM | [7] > 83.9 µM | [8] > 100 µM | [9] > 100 µM | [10] 48.2 µM | [11] 53.2 µM | [12] 98.6 µM | [13] 71.3 µM | [14] > 100 µM | [15] > 100 µM | [16] > 100 µM | [17] 57 µM | [18] > 57.8 µM | [19] 53.7 µM | [20] 37.8 µM

CCOC1SC(SC)=NN1C(=O)C(OC(C)=O)C(OC(C)=O)C(OC(C)=O)C(OC(C)=O)C(=O)N1N=C(SC)SC1OCC (stereo not drawn)
inactive: [1] 62.1 µM | [2] > 100 µM | [3] > 100 µM | [4] > 100 µM | [5] > 100 µM | [6] > 100 µM | [7] > 100 µM | [8] > 100 µM | [9] > 100 µM | [10] > 100 µM | [11] > 100 µM | [12] > 100 µM | [13] 78.5 µM | [14] > 100 µM | [15] > 100 µM | [16] > 100 µM | [17] > 100 µM | [18] > 100 µM | [19] > 100 µM | [20] > 100 µM

COC(=O)C1SC[C@H]2C(=O)N(c3ccccc3)C(=O)N12 (stereo partly drawn)
inactive: [1] > 100 µM | [2] > 100 µM | [3] > 100 µM | [4] > 100 µM | [5] > 100 µM | [6] > 100 µM | [7] > 100 µM | [8] > 100 µM | [9] > 100 µM | [10] > 100 µM | [11] > 100 µM | [12] > 100 µM | [13] > 100 µM | [14] > 100 µM | [15] > 100 µM | [16] > 100 µM | [17] > 100 µM | [18] > 100 µM | [19] > 100 µM | [20] > 100 µM

Cc1cc(C)c2ccc(N3CCNCC3)nc2n1
inactive: [1] 67.9 µM | [2] > 100 µM | [3] > 100 µM | [4] > 100 µM | [5] 55.7 µM | [6] 57.7 µM | [7] > 100 µM | [8] > 100 µM | [9] > 100 µM | [10] > 100 µM | [11] > 100 µM | [12] > 100 µM | [13] > 100 µM | [14] > 100 µM | [15] > 100 µM | [16] > 100 µM | [17] > 100 µM | [18] > 100 µM | [19] > 100 µM | [20] 41.7 µM

C(=N\N=C1NCCN1)/c1ccc2ccccc2c1
inactive: [1] 12.8 µM | [2] 9.02 µM | [3] 8.59 µM | [4] 12.7 µM | [5] 8.67 µM | [6] 14.5 µM | [7] 14.9 µM | [9] 19.6 µM | [10] 14.4 µM | [11] 13.1 µM | [12] 11.8 µM | [13] 18.1 µM | [14] 18.7 µM | [15] 14.3 µM | [16] 10.8 µM | [17] 12.9 µM | [18] 16.3 µM | [19] 12.4 µM | [20] 3.67 µM

O=C(Cc1ccc(OCc2cccc(Cl)c2)cc1)NO
inactive: [1] 14.7 µM | [2] 19.9 µM | [3] 6.76 µM | [4] 58.7 µM | [5] 12.1 µM | [6] 27 µM | [7] 27.6 µM | [8] 29.4 µM | [9] 34 µM | [10] 23.1 µM | [11] 15.8 µM | [12] 12.2 µM | [13] 15.3 µM | [14] 30.3 µM | [15] 32.9 µM | [16] 29.8 µM | [17] 5.81 µM | [18] 31.3 µM | [19] 34.8 µM | [20] 12.8 µM

O=C(c1ccccc1)N(C(=O)c1ccccc1)c1nc(SCc2ccccc2)ns1
inactive: [1] 26.7 µM | [2] 38.2 µM | [3] 25.6 µM | [4] 22.1 µM | [5] 21.8 µM | [6] 25.5 µM | [7] 34 µM | [8] 34.4 µM | [9] 24 µM | [10] 21.1 µM | [11] 20 µM | [12] 28.3 µM | [13] 39.9 µM | [14] 33.7 µM | [15] 30.8 µM | [16] 43.2 µM | [17] 22.2 µM | [18] 37.2 µM | [19] 25.9 µM | [20] 6.11 µM

Nc1ncnc2c1ncn2[C@@H]1O[C@H](COP(=O)(O)OP(=O)(O)OC[C@H]2O[C@@H](OCCCO)[C@H](O)[C@@H]2O)[C@@H](O)[C@H]1O
inactive: [1] > 100 µM | [2] 85.9 µM | [3] > 100 µM | [4] > 100 µM | [5] > 100 µM | [6] 69.8 µM | [7] 63.5 µM | [8] > 100 µM | [9] > 100 µM | [10] 34.6 µM | [11] > 100 µM | [12] > 100 µM | [13] > 100 µM | [14] > 100 µM | [15] > 100 µM | [16] > 100 µM | [17] 44.8 µM | [18] > 100 µM | [19] > 100 µM | [20] > 100 µM

Cc1ccc(SCC(CF)OC(C)n2cnc3c(Cl)nc(N)nc32)cc1 (stereo not drawn)
inactive: [1] 58.7 µM | [2] 84.7 µM | [3] 81.1 µM | [4] > 100 µM | [5] 22.7 µM | [6] > 100 µM | [7] > 100 µM | [8] > 100 µM | [9] 57.4 µM | [10] 53 µM | [11] 18.7 µM | [12] 25.1 µM | [13] 16 µM | [14] > 100 µM | [15] > 100 µM | [16] 37.2 µM | [17] 40 µM | [18] > 100 µM | [19] > 100 µM | [20] 42.5 µM

CC(/C=N/N(C)C1=NCCCN1)=N/N(C)C1=NCCCN1
inactive: [1] > 100 µM | [2] > 100 µM | [3] > 100 µM | [4] > 100 µM | [5] > 100 µM | [6] > 100 µM | [7] > 100 µM | [9] > 100 µM | [10] > 100 µM | [11] > 100 µM | [12] > 100 µM | [13] > 100 µM | [14] > 100 µM | [15] > 100 µM | [16] > 100 µM | [17] > 100 µM | [18] > 100 µM | [19] > 100 µM | [20] > 100 µM
